Test results as given in patent US6737383B1, “Herbicidal oxadiazolidines” (priority 1999, dated 2004).

Tests used:
surinam grass = test: Test B pre/postemergence surinam grass; format: in vivo, Brachiaria decumbens
How it was run: (§1)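 Test chemicals in a non-phytotoxic solvent mixture with surfactant were sprayed preemergence onto planted seeds and postemergence onto plants 2 to 18 cm tall (1- to 4-leaf stage). After twelve to sixteen days in a greenhouse, injury was visually rated against untreated controls from 0 (no effect) to 10 (complete control).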

purple nutsedge = test: Test B pre/postemergence purple nutsedge; format: in vivo, Cyperus rotundus
How it was run: as §1

bedstraw = test: Test B pre/postemergence bedstraw; format: in vivo, Galium aparine
How it was run: as §1

morningglory = test: Test B pre/postemergence morningglory; format: in vivo, Ipomoea hederacea
How it was run: as §1

smallflower flatsedge = test: Test B flood test smallflower flatsedge; format: in vivo, Cyperus difformis
How it was run: (§2)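 Flood test on plants grown to the 2-leaf stage; treated plants kept in greenhouse twelve to sixteen days, then visually rated against controls on a 0 (no effect) to 10 (complete control) scale.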

velvetleaf = test: Test B pre/postemergence velvetleaf; format: in vivo, Abutilon theophrasti; details: for Plant response rating, Velvetleaf: Rate 250 g/ha
How it was run: as §1

wheat = test: Test B pre/postemergence wheat; format: in vivo, Triticum aestivum; details: for Plant response rating, Wheat: Rate 250 g/ha
How it was run: as §1

crabgrass = test: Test B pre/postemergence crabgrass; format: in vivo, Digitaria sanguinalis
How it was run: as §1

rice = test: Test B flood test rice; format: in vivo, Oryza sativa
How it was run: as §2

pigweed = test: Test B pre/postemergence pigweed; format: in vivo, Amaranthus retroflexus
How it was run: as §1

wild oat = test: Test B pre/postemergence wild oat; format: in vivo, Avena fatua; details: for Plant response rating, Wild oats: Rate 250 g/ha
How it was run: as §1

corn = test: Test B pre/postemergence corn; format: in vivo, Zea mays
How it was run: as §1

giant foxtail = test: Test B pre/postemergence giant foxtail; format: in vivo, Setaria faberii
How it was run: as §1

soybean = test: Test B pre/postemergence soybean; format: in vivo, Glycine max
How it was run: as §1

duck salad = test: Test B flood test duck salad; format: in vivo, Heteranthera limosa
How it was run: as §2

blackgrass = test: Test B pre/postemergence blackgrass; format: in vivo, Alopecurus myosuroides
How it was run: as §1

[1] = Postemergence, Rate 62 g/ha, scale 0 to 10, 0 is no effect, 10 is complete control
[2] = Postemergence, Rate 250 g/ha, scale 0 to 10, 0 no effect, 10 complete control
[3] = Preemergence, Rate 62 g/ha, scale 0 to 10 (0 no effect, 10 complete control)
[4] = Preemergence, Rate 125 g/ha, scale 0 to 10 (0 no effect, 10 complete control)
[5] = Preemergence, Rate 250 g/ha, scale of 0 to 10 where 0 is no effect and 10 is complete control
[6] = Preemergence, Rate 500 g/ha, scale 0 (no effect) to 10 (complete control)
[7] = Rate 125 g/ha, Postemergence, scale 0 to 10, 0 no effect, 10 complete control
[8] = Postemergence, Rate 125 g/ha, scale of 0 to 10 where 0 is no effect and 10 is complete control
[9] = Rate 500 g/ha, Postemergence, scale 0 to 10, 0 no effect, 10 complete control
[10] = Postemergence (flood test species), Rate 125 g/ha, scale of 0 to 10 where 0 is no effect and 10 is complete control
[11] = Rate 250 g/ha, Postemergence (flood test), scale 0 to 10, 0 is no effect, 10 is complete control
[12] = Rate 500 g/ha, listed under Postemergence (flood test species), scale 0 to 10, 0 no effect, 10 complete control
[13] = Preemergence, Rate 125 g/ha, 0 is no effect, 10 is complete control
[14] = Preemergence, scale of 0 to 10 where 0 is no effect and 10 is complete control
[15] = Postemergence, scale 0 to 10, 0 is no effect, 10 is complete control
[16] = Rate 250 g/ha, Postemergence, scale 0 to 10, 0 is no effect, 10 is complete control

Cc1nn(C)c(Cl)c1-n1c(=O)on(C(=O)N(c2ccc(F)cc2F)C(C)C)c1=O [Compound 96]
B. signalgrass plant response rating (surinam grass; [1]): 0 | B. signalgrass plant response rating (surinam grass; [2]): 0 | B. signalgrass plant response rating (surinam grass; [3]): 0 | Plant response rating, B. signalgrass (surinam grass; [4]): 0 | Plant response rating, B. signalgrass (surinam grass; [5]): 1 | B. signalgrass plant response rating (surinam grass; [6]): 2 | B. signalgrass plant response rating (surinam grass; [7]): 0 | B. signalgrass plant response rating (surinam grass; Rate 500 g/ha, Postemergence, scale of 0 to 10 where 0 is no effect and 10 is complete control): 0 | Nutsedge plant response rating (purple nutsedge; [1]): 0 | Nutsedge plant response rating (purple nutsedge; [8]): 0 | Nutsedge plant response rating (purple nutsedge; [2]): 0 | Nutsedge plant response rating (purple nutsedge; [3]): 0 | Plant response rating, Nutsedge (purple nutsedge; [4]): 0 | Plant response rating, Nutsedge (purple nutsedge; [5]): 0 | Nutsedge plant response rating (purple nutsedge; [6]): 0 | Nutsedge plant response rating (purple nutsedge; [9]): 0 | Bedstraw plant response rating (bedstraw; [1]): 0 | Bedstraw plant response rating (bedstraw; [2]): 0 | Bedstraw plant response rating (bedstraw; [3]): 0 | Plant response rating, Bedstraw (bedstraw; [4]): 0 | Plant response rating, Bedstraw (bedstraw; [5]): 0 | Bedstraw plant response rating (bedstraw; [6]): 2 | Bedstraw plant response rating (bedstraw; [7]): 0 | Bedstraw plant response rating (bedstraw; [9]): 0 | Morningglory plant response rating (morningglory; [1]): 1 | Morningglory plant response rating (morningglory; [8]): 1 | Morningglory plant response rating (morningglory; [2]): 1 | Morningglory plant response rating (morningglory; [3]): 0 | Plant response rating, Morningglory (morningglory; [4]): 0 | Plant response rating, Morningglory (morningglory; [5]): 0 | Morningglory plant response rating (morningglory; [6]): 0 | Morningglory plant response rating (morningglory; [9]): 2 | S. Flatsedge plant response rating (smallflower flatsedge; [10]): 0 | S. Flatsedge plant response rating (smallflower flatsedge; [1]): 0 | Plant response rating, S. Flatsedge (smallflower flatsedge; [11]): 0 | S. Flatsedge plant response rating (smallflower flatsedge; [12]): 3 | Velvetleaf plant response rating (velvetleaf; [1]): 0 | Velvetleaf plant response rating (velvetleaf; [8]): 0 | Velvetleaf plant response rating (velvetleaf; [3]): 0 | Velvetleaf plant response rating (0 to 10 scale) (velvetleaf; [13]): 0 | Plant response rating, Velvetleaf (velvetleaf; [14]): 0 | Velvetleaf plant response rating (velvetleaf; [6]): 0 | Plant response rating, Velvetleaf (velvetleaf; [15]): 0 | Velvetleaf plant response rating (velvetleaf; [9]): 0 | Wheat plant response rating (wheat; [1]): 0 | Wheat plant response rating (wheat; [8]): 0 | Wheat plant response rating (wheat; [3]): 0 | Wheat plant response rating (0 to 10 scale) (wheat; [13]): 0 | Plant response rating, Wheat (wheat; [14]): 0 | Wheat plant response rating (wheat; [6]): 0 | Plant response rating, Wheat (wheat; [15]): 0 | Wheat plant response rating (wheat; [9]): 0 | Crabgrass plant response rating (crabgrass; [1]): 1 | Crabgrass plant response rating (crabgrass; [8]): 3 | Crabgrass plant response rating (crabgrass; [2]): 3 | Crabgrass plant response rating (crabgrass; [3]): 1 | Plant response rating, Crabgrass (crabgrass; [4]): 4 | Plant response rating, Crabgrass (crabgrass; [5]): 7 | Crabgrass plant response rating (crabgrass; [6]): 9 | Crabgrass plant response rating (crabgrass; [9]): 8 | Rice plant response rating (rice; [10]): 0 | Rice plant response rating (rice; [1]): 0 | Plant response rating, Rice (rice; [11]): 0 | Rice plant response rating (rice; [12]): 2 | Redroot pigweed plant response rating (pigweed; [1]): 0 | Redroot pigweed plant response rating (pigweed; [8]): 0 | Plant response rating, Redroot pigweed (pigweed; [4]): 6 | Plant response rating, Redroot pigweed (pigweed; [5]): 7 | Redroot pigweed plant response rating (pigweed; [6]): 8 | Plant response rating, Redroot pigweed (pigweed; [16]): 0 | Redroot pigweed plant response rating (pigweed; [9]): 0 | Wild oats plant response rating (wild oat; [1]): 0 | Wild oats plant response rating (wild oat; [8]): 0 | Wild oats plant response rating (wild oat; [3]): 0 | Wild oats plant response rating (0 to 10 scale) (wild oat; [13]): 0 | Plant response rating, Wild oats (wild oat; [14]): 2 | Wild oats plant response rating (wild oat; [6]): 7 | Plant response rating, Wild oats (wild oat; [15]): 0 | Wild oats plant response rating (wild oat; [9]): 0 | Corn plant response rating (corn; [1]): 0 | Corn plant response rating (corn; [8]): 0 | Corn plant response rating (corn; [2]): 0 | Corn plant response rating (corn; [3]): 0 | Plant response rating, Corn (corn; [4]): 0 | Plant response rating, Corn (corn; [5]): 0 | Corn plant response rating (corn; [6]): 0 | Corn plant response rating (corn; [9]): 0 | Giant foxtail plant response rating (giant foxtail; [1]): 0 | Giant foxtail plant response rating (giant foxtail; [8]): 0 | Giant foxtail plant response rating (giant foxtail; [2]): 0 | Giant foxtail plant response rating (giant foxtail; [3]): 2 | Plant response rating, Giant foxtail (giant foxtail; [4]): 2 | Plant response rating, Giant foxtail (giant foxtail; [5]): 3 | Giant foxtail plant response rating (giant foxtail; [6]): 8 | Giant foxtail plant response rating (giant foxtail; [9]): 3 | Soybean plant response rating (soybean; [1]): 1 | Soybean plant response rating (soybean; [8]): 1 | Soybean plant response rating (soybean; [3]): 0 | Plant response rating, Soybean (soybean; [4]): 0 | Plant response rating, Soybean (soybean; [5]): 0 | Soybean plant response rating (soybean; [6]): 0 | Plant response rating, Soybean (soybean; [16]): 1 | Soybean plant response rating (soybean; [9]): 1 | Ducksalad plant response rating (duck salad; [10]): 0 | Ducksalad plant response rating (duck salad; [1]): 0 | Ducksalad plant response rating (duck salad; [12]): 0 | Ducksalad plant response rating (duck salad; flood test, listed under Postemergence, Rate 250 g/ha, scale 0 to 10, 0 no effect, 10 complete control): 0 | Blackgrass plant response rating (blackgrass; [1]): 0 | Blackgrass plant response rating (blackgrass; [8]): 0 | Blackgrass plant response rating (blackgrass; [2]): 0 | Blackgrass plant response rating (blackgrass; [3]): 0 | Plant response rating, Blackgrass (blackgrass; [4]): 3 | Plant response rating, Blackgrass (blackgrass; [5]): 3 | Blackgrass plant response rating (blackgrass; [6]): 8 | Blackgrass plant response rating (blackgrass; [9]): 0
